Test results reported in EP4813979A1, “COMPOUND FOR EGFR PROTEIN DEGRADATION AND USE THEREOF” (TYK Medicines, Inc., priority 2023, dated 2025).

Columns and labels:
Experiment in all cases: Cell anti-proliferation experiment (CTG)
Type in all cases: cell-based
[1] = test system: A431; conditions: Homo sapiens, A-431, 72 h, A431 (wild-type EGFR)
From the text: (§1) H1975 has an EGFR: T790M/L858R double mutation, PC-9 has an EGFR exon 19 deletion, and HCC827 has an exon 19 deletion mutation. Baf3-19del- T790M -C797S (Baf3-DTC) is a stable Ba/F3 clone expressing exogenous EGFR gene bearing T790M, C797S, and […] triple amino acid mutations, purchased from KYinno. Baf3-L858R-T790M - C797S (Baf3-LTC) is a stable Ba/F3 clone expressing exogenous EGFR gene bearing […], T790M, and C797S triple mutations, purchased from KYinno. A549 is a wild-type EGFR, purchased from Nanjing Kebai Biotechnology. A431 is a wild-type EGFR, purchased from Shanghai Xinyu Biotechnology. CellCounting-Lite2.0, Trypsin EDTA, 37°C CO2 incubator, cell counter, EnVision Serial No. 1050454.
(§2) • A) Digested logarithmic phase cells with Trypsin EDTA, added culture medium to stop the reaction, and mixing well with a pipette to prepare a cell suspension. • B) Used Vi-cell to determine cell concentration, and prepared a suspension of 15,000-25,000 cells per milliliter according to the experimental purpose and cell characteristics. • C) After prepared the cell suspension, mixed it gently and added 100 µL to each well, so that the cell density to be tested is 1500-2500 per well.
(§3) • A) Weighed approximately 2 mg the compound and calculated the required volume of DMSO according to the formula: Compound mass (mg) * Compound purity (%) / Compound molecular weight * 1000. • B) Placed the inoculated cell culture plate into an incubator and incubated for about 24 hours. Then added compounds of varying concentrations. • C) Diluted the 10mM compound stock solution to […] with culture medium, and added the […] compound solution to the second column of the deep well plate in sequence, and added […] culture medium containing 0.5% DMSO to the third to eleventh columns. • D) Gradient dilution: Taked 125 µL solution from the second column and added it to the third column, mix well; then taked 125 µL solution from the third column and added it to the fourth column, repeated this operation until the tenth column. • E) Used a multichannel pipette, aspirated 25 µL the compound from the deep-well plate and added it to a 96-well culture plate. Repeated this process three times for each compound on the 96-well plate. This will ultimately create a concentration gradient of up to 10,000 nM at a 1:4 ratio on the 96-well plate.
(§4) • A) The effects of the compound were observed under an inverted microscope after the 96-well plate was incubated in an incubator for 72 hours. • B) Added 25 µL CTG solution to each well, placed on a shaker for 10 minutes, and read the […] of each well.
(§5) Calculate the % Cell Viability using the following formula: %Cell Viability = 100% × (Lum_Sample−Lum_LC)/(Lum_HC−Lum_LC) [formula] • Lum_HC: Cell readings from the 0.1% DMSO control group • Lum_Sample: Cell readings with added compound • Lum_LC: Blank culture medium reading
(§6) The IC50 value was obtained by curve fitting using GraphPad Prism 8 software.

[2] = test system: A549; conditions: Homo sapiens, A549, 72 h, A549 (wild-type EGFR)
From the text: as §1, §2, §3, §4, §5, §6

[3] = test system: Baf3-19del- T790M -C797S (Baf3-DTC); conditions: 72 h
From the text: as §1, §2, §3, §4, §5, §6

[4] = test system: Baf3-L858R-T790M - C797S (Baf3-LTC); conditions: 72 h
From the text: as §1, §2, §3, §4, §5, §6

[5] = test system: H1975; conditions: Homo sapiens, NCI-H1975, 72 h, H1975 (EGFR T790M/L858R)
From the text: as §1, §2, §3, §4, §5, §6

[6] = test system: HCC827; conditions: Homo sapiens, HCC827, 72 h, HCC827 (exon 19 deletion)
From the text: as §1, §2, §3, §4, §5, §6

[7] = test system: PC-9; conditions: Homo sapiens, PC-9, 72 h, PC-9 (EGFR exon 19 deletion)
From the text: as §1, §2, §3, §4, §5, §6

| Structure (SMILES) | IC50 ([1]; class symbol) | IC50 ([1]; number after the class symbol) | IC50 ([2]; class symbol) | IC50 ([2]; number after the class symbol) | IC50 ([3]; class symbol) | IC50 ([3]; number after the class symbol) | IC50 ([4]; class symbol) | IC50 ([4]; number after the class symbol) | IC50 ([5]; class symbol) | IC50 ([5]; number after the class symbol) | IC50 ([6]; class symbol) | IC50 ([6]; number after the class symbol) | IC50 ([7]; class symbol) | IC50 ([7]; number after the class symbol) |
| --- | --- | --- | --- | --- | --- | --- | --- | --- | --- | --- | --- | --- | --- | --- |
| CCc1cc(Nc2ncc(Cl)c(Nc3ccccc3P(C)(C)=O)n2)c(OC)cc1N1CCN(C(=O)CN2CCC(c3ccc4c(N5CCC(=O)NC5=O)nn(C)c4c3)C(F)(F)C2)CC1 (stereo not shown) [TC-215] | > 1 µM | 1.07 µM | 0.1 to 1 µM | 0.326 µM | < 0.01 µM | 0.0056 µM | < 0.01 µM | 0.0053 µM | 0.1 to 1 µM | 0.164 µM | 0.1 to 1 µM | 0.227 µM | 0.1 to 1 µM | 0.647 µM |
| COc1cc(N2CCN(C(=O)CN3CCC(c4cc5c(cc4F)c(N4CCC(=O)NC4=O)nn5C)C(F)(F)C3)CC2)c(-c2cnn(C)c2)cc1Nc1ncc(Br)c(Nc2ccccc2P(C)(C)=O)n1 (stereo not shown) [TC-224] | 0.1 to 1 µM | – | 0.1 to 1 µM | – | < 0.01 µM | – | < 0.01 µM | – | 0.01 to 0.1 µM | – | 0.01 to 0.1 µM | – | 0.1 to 1 µM | – |
| CCc1cc(Nc2ncc(Cl)c(Nc3ccccc3P(C)(C)=O)n2)c(OC)cc1N1CCC2(CC1)CN(C(=O)CN1CCC(c3cc4c(cc3F)c(N3CCC(=O)NC3=O)nn4C)C(F)(F)C1)C2 (stereo not shown) [TC-225] | > 1 µM | 1.61 µM | 0.1 to 1 µM | 0.961 µM | 0.01 to 0.1 µM | 0.0135 µM | 0.01 to 0.1 µM | 0.0167 µM | 0.1 to 1 µM | 0.289 µM | 0.1 to 1 µM | 0.576 µM | 0.1 to 1 µM | 0.432 µM |
| CCc1cc(Nc2ncc(Br)c(Nc3ccccc3P(C)(C)=O)n2)c(OC)cc1N1CCC2(CC1)CN(C(=O)CN1CCC(c3cc4c(cc3F)c(N3CCC(=O)NC3=O)nn4C)C(F)(F)C1)C2 (stereo not shown) [TC-226] | > 1 µM | – | 0.1 to 1 µM | – | < 0.01 µM | – | < 0.01 µM | – | 0.1 to 1 µM | – | 0.1 to 1 µM | – | 0.1 to 1 µM | – |
| CCc1cc(Nc2ncc(Br)c(Nc3ccc(OC4CC4)cc3P(C)(C)=O)n2)c(OC)cc1N1CC2(CCN(C(=O)CN3CCC(c4cc5c(cc4F)c(N4CCC(=O)NC4=O)nn5C)C(F)(F)C3)CC2)C1 (stereo not shown) [TC-232] | > 1 µM | – | > 1 µM | – | < 0.01 µM | – | < 0.01 µM | – | 0.01 to 0.1 µM | – | 0.01 to 0.1 µM | – | 0.1 to 1 µM | – |
